Results on 4 compounds are retold here after ChEMBL document CHEMBL1201862, “PubChem BioAssay data set” (2004).

Among the test systems are SN12C; MOLT-4; IGROV-1; MDA-N; Malme-3M; UO-31; SNB-75; SW-620; COLO 205; M14; SK-MEL-28; Hs-578T; EKVX; OVCAR-8; PC-3; OVCAR-3; OVCAR-4; HOP-62; SF-539; MDA-MB-231.
Experiment in all cases: DTP human tumour cell line panel, 48 h

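Assay format: 96-well plates, 48-hour exposure. GI50 is the concentration that inhibits growth by half.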 Active and inactive are the calls of the source. Cut-off read from the data, not from the text of the source: active = GI50 up to about 1.1 µM and inactive = higher.

On to `CC(=O)OCC1OC(n2c(Br)nc3c2c(=O)n(C)c(=O)n3C)C(OC(C)=O)C1OC(C)=O` (stereo not given), for which the GI50 in the test with SN12C is 79.4 µM (inactive); in the test with MOLT-4, > 100 µM (inactive); in the test with IGROV-1, > 100 µM (inactive); with MDA-N it was 33.6 µM (inactive); in the test on Malme-3M it was > 100 µM (inactive); in the test on UO-31, > 100 µM (inactive). The GI50 in the test with SNB-75 is 85.1 µM (inactive); with SW-620, 76.9 µM (inactive); with COLO 205, 75 µM (inactive); in the test with M14, 77.1 µM (inactive); with SK-MEL-28, > 100 µM (inactive); in the test with Hs-578T it was 45.8 µM (inactive). The GI50 is 64.7 µM (inactive) in the test with EKVX; 42 µM (inactive) in the test on OVCAR-8; 45.8 µM (inactive) with PC-3; 48.1 µM (inactive) in the test with OVCAR-3; 27.5 µM (inactive) in the test on OVCAR-4; > 100 µM (inactive) in the test on HOP-62. Further, the figures for the GI50 in the test with SF-539 and in the test on MDA-MB-231 were 59.2 µM (inactive) and > 100 µM (inactive), respectively.
For the compound `N#CS/C(C(Cl)=C(Cl)Cl)=C(/Cl)[N+](=O)[O-]`, the GI50 in the test with SN12C was 2.21 µM (inactive); in the test with MOLT-4, 0.6 µM (active); in the test on IGROV-1, 2.32 µM (inactive); in the test on MDA-N it was 1.8 µM (inactive); in the test on Malme-3M it was 1.58 µM (inactive); in the test with UO-31, 1.63 µM (inactive). The GI50 with SNB-75 is 17.4 µM (inactive); in the test on SW-620, 1.78 µM (inactive); with COLO 205 it was 1.49 µM (inactive); with M14 it was 1.31 µM (inactive); with SK-MEL-28 it was 1.76 µM (inactive); in the test on Hs-578T it was 6.1 µM (inactive). The GI50 is 4.46 µM (inactive) in the test on EKVX; 1.75 µM (inactive) in the test on OVCAR-8; 5.33 µM (inactive) in the test with PC-3; 1.53 µM (inactive) with OVCAR-3; 1.95 µM (inactive) in the test with OVCAR-4; 15.4 µM (inactive) with HOP-62. The values for the GI50 in the test with SF-539 and in the test on MDA-MB-231 were 6.44 µM (inactive) and 3.1 µM (inactive), respectively.
As for `C=C1C(=O)OC2/C=C(\CO)CC/C=C(\CO)CC(OC(=O)C(C)C)C12` (stereo not given), the GI50 in the test on SN12C is 13.3 µM (inactive); in the test on MOLT-4 it was 3.25 µM (inactive); in the test with IGROV-1, 15.7 µM (inactive); in the test on MDA-N, 5.68 µM (inactive); in the test with Malme-3M, 2.08 µM (inactive); in the test on UO-31, 14 µM (inactive). Also, the GI50 was 16.5 µM (inactive) with SNB-75; 4.41 µM (inactive) in the test on SW-620; 2.16 µM (inactive) with COLO 205; 7.53 µM (inactive) in the test with M14; 6.27 µM (inactive) in the test with SK-MEL-28; 19.9 µM (inactive) in the test with Hs-578T. For the same compound, the GI50 in the test on EKVX is 16.4 µM (inactive); in the test on OVCAR-8, 20 µM (inactive); with PC-3, 16.6 µM (inactive); in the test with OVCAR-3, 11.6 µM (inactive); in the test on OVCAR-4, 19.4 µM (inactive); with HOP-62, 19.2 µM (inactive). Moreover, the GI50 was 14.9 µM (inactive) in the test with SF-539 and 20.1 µM (inactive) with MDA-MB-231.
As to `CC(=O)c1c2c(cc3c1CCC3)CCC2`, the GI50 in the test with SN12C is > 100 µM (inactive); with MOLT-4, 20.6 µM (inactive); in the test with IGROV-1 it was > 100 µM (inactive); in the test with MDA-N, > 100 µM (inactive); with Malme-3M, > 100 µM (inactive); in the test on UO-31 it was 54.5 µM (inactive). Moreover, the GI50 in the test with SNB-75 is > 100 µM (inactive); in the test on SW-620, > 100 µM (inactive); in the test on COLO 205, > 100 µM (inactive); in the test with M14 it was > 100 µM (inactive); in the test with SK-MEL-28, > 100 µM (inactive); with Hs-578T, 76.6 µM (inactive). The GI50 is 63.5 µM (inactive) in the test on EKVX; > 100 µM (inactive) with OVCAR-8; 55.3 µM (inactive) in the test on PC-3; > 100 µM (inactive) in the test on OVCAR-3; 69.7 µM (inactive) with OVCAR-4; > 100 µM (inactive) with HOP-62. The GI50 with SF-539 and in the test on MDA-MB-231 was > 100 µM (inactive) each time.

Broadly, the GI50 is the concentration that inhibits growth by half.
